Measurements taken from US9598364B2, “Indolyl or indolinyl hydroxamate compounds” (Taipei Medical University, priority 2010, dated 2017).
Read-outs that look alike come from different tables or passages of the source.

Key:
[1] = test system: MDA-MB-231 (estrogen-independent breast cancer); experiment: SRB assay, MDA-MB-231; assay type: cell-based; conditions: Homo sapiens, MDA-MB-231 cells, 48 h
Method: (§1) Human cancer A549 (non-small cell lung cancer), MDA-MB-231 (estrogen-independent breast cancer), Hep 3B (hepatoma), and HA22T (hepatoma) cells were seeded in 96-well plates in medium with 5% FBS. After 24 h, cells were fixed with 10% trichloroacetic acid (TCA) to represent cell population at the time of compound addition (T0). After additional incubation of DMSO or test compound for 48 h, cells were fixed with 10% TCA and SRB at 0.4% (w/v) in 1% acetic acid was added to stain cells. Unbound SRB was washed out by 1% acetic acid and SRB bound cells were solubilized with 10 mM Trizrna base. The absorbance was read at a wavelength of 515 nm. Using the absorbance measurements of time zero (T0), the control group (C), and the cell growth in the presence of the compound (Ti), the percentage growth was calculated at each of the compound concentrations levels.

[2] = test system: A549 (non-small cell lung cancer); experiment: SRB assay, A549; assay type: cell-based, Human; conditions: A549 cells, 48 h
Method: as §1

[3] = test system: HA22T (hepatoma); experiment: SRB assay, HA22T; assay type: cell-based, Human; conditions: HA22T cells, 48 h, read-out: HA22T liver GI50
Method: as §1

[4] = test system: Hep 3B (hepatoma); experiment: SRB assay, Hep 3B; assay type: cell-based; conditions: Homo sapiens, Hep3B, Hep-3B cells, 48 h, read-out: Hep-3B liver GI50
Method: as §1

[5] = test system: NB4; experiment: cells
Method: (§2) 10^4 cells per well were seeded in 96-well culture plates with or without one of the test compounds. Various concentrations for the test compound were examined. […] The drug concentration resulting in total growth inhibition (TGI) is determined when Ti=Tz.
(§3) Cells were seeded in a 96-well flat-bottomed plate (2,500 to 3,000 cells per well). […] After being incubated at 37° C. for 2 h, the supernatant was removed and 200 μl/well of DMSO were added to dissolve the remaining MTT dye. The absorbance at 570 nm in each well was determined using a plate reader.

[6] = test system: HL60; experiment: cells
Method: as §2, §3

[7] = test system: U937; experiment: cells
Method: as §2, §3

[8] = test system: K562; experiment: cells
Method: as §2, §3

[9] = test system: Kasumi-1; experiment: MTT cell viability assay, Kasumi-1; assay type: cell-based
[10] = test system: PC-3 cells; experiment: Western blot analysis; assay type: cell-based; conditions: PC-3 cells, 1, 2.5, or 5 μM, 48 hours
Method: PC-3 cells treated with a test compound at 1, 2.5, or 5 μM in RPMI 1640 supplemented with 10% FBS for 48 hours. The cells were collected and sonicated. Protein concentrations in the resultant lysates were determined by a Bradford protein assay kit (Bio-Rad, Hercules, Calif.). The protein lysate, containing the same amount of proteins, were subjected to 10% SDS-polyacrylarnide gel (10%) electrophoresis. The proteins on the gel were then transferred onto an Immobilon-nitrocellulose membrane (Millipore, Bellerica, Mass.) in a semi-dry transfer cell. The transblotted membrane was washed twice with tris-buffered saline containing 0.1% Tween 20 (TBST). After being blocked with TBST containing 5% nonfat milk for 40 min, the membrane was incubated with a primary antibody specific to Acetyl-H3 (antibody obtained from Upstate Biotechnology, Inc., Lake Placid, N.Y.), H3 (Upstate Biotechnology), Acetyl α-tubulin (Sigma-Aldrich, St. Louis, Mo.), phospho-Akt (Serine 473) (Cell Signaling Technologies, Danvers, Mass.), Akt (Cell Signaling Technologies), Acetyl p53 (Santa Cruz Biotechnology, Santa Cruz, Calif.), p53 (Santa Cruz Biotechnology), p21 (Santa Cruz Biotechnology), or α-tubulin (Sigma-Aldrich, St. Louis, Mo.) (1:3000 dilution) in TBST/1% nonfat milk at 4 overnight. The membrane was washed three times with TBST for a total of 15 min and then incubated with a goat anti-rabbit or anti-mouse IgG antibody conjugated with horseradish (diluted 1:3000) for 1 h at room temperature. After being washed for at least three times with TBST, the signal intensity for each protein band was determined.

[11] = test system: MV4-11; experiment: cells
Method: as §2, §3

[12] = NB4 leukemia cells, MTT, 48 or 72 hr
[13] = HL60 leukemia cells, MTT, 48 or 72 hr
[14] = U937 leukemia cells, MTT, 48 or 72 hr
[15] = K562 leukemia cells, MTT, 48 or 72 hr
[16] = Kasumi-1 leukemia cells, MTT, 48 or 72 hr
[17] = Homo sapiens, NB-4, read-out: LC50
[18] = Homo sapiens, U-937, read-out: LC50
[19] = Homo sapiens, K562, read-out: LC50

`COc1ccc(S(=O)(=O)N2CCc3cc(C=CC(=O)NO)ccc32)cc1` [Compound 13, N-hydroxy-3-[1-(4-methoxy-benzenesulfonyl)-2,3-dihydro-1H-indol-5-yl]-acrylamide] gave a GI50 [1] of 160 nM, a GI50 ([2]; Homo sapiens) of 320 nM and a GI50 ([3]; Homo sapiens) of 540 nM. The GI50 [4] was 140 nM.
Compound `COc1ccc(S(=O)(=O)N2CCc3cc(C=CC(=O)NO)ccc32)cc1OC` [Compound 17, 3-[1-(3,4-dimethoxy-benzenesulfonyl)-2,3-dihydro-1H-indol-5-yl]-N-hydroxy-acrylamide] has a GI50 [1] of 190 nM, a GI50 ([2]; Homo sapiens) of 320 nM and a GI50 ([3]; Homo sapiens) of 620 nM. The GI50 [4] was 160 nM.
For `COc1ccc(S(=O)(=O)n2ccc3cc(C=CC(=O)NO)ccc32)cc1OC` [Compound 8, 3-[1-(3,4-dimethoxy-benzenesulfonyl)-1H-indol-5-yl]-N-hydroxy-acrylamide], the GI50 [1] was 370 nM, the GI50 ([2]; Homo sapiens) was 930 nM and the GI50 ([3]; Homo sapiens) was 930 nM. The GI50 [4] was 360 nM.
`Nc1ccc(S(=O)(=O)n2ccc3cc(C=CC(=O)NO)ccc32)cc1` [Compound 7, 3-[1-(4-Amino-benzenesulfonyl)-1H-indol-5-yl]-N-hydroxy-acrylamide] showed a GI50 [1] greater than 10000 nM, a GI50 ([2]; Homo sapiens) greater than 10000 nM and a GI50 ([3]; Homo sapiens) greater than 10000 nM. For the same compound, the GI50 [4] was greater than 10000 nM.
`COc1ccc(S(=O)(=O)n2ccc3cc(C=CC(=O)NO)ccc32)cc1` [Compound 4, N-hydroxy-3-[1-(4-methoxy-benzenesulfonyl)-1H-indol-5-yl]-acrylamide] was tested, and the GI50 [1] was 750 nM, the GI50 ([2]; Homo sapiens) was 1310 nM and the GI50 ([3]; Homo sapiens) was 1560 nM. It also gave a GI50 [4] of 550 nM.
For `O=C(CCCCCCC(=O)Nc1ccccc1)NO` [SAHA, reference compound], the CC50 [5] was 928 nM, the GI50 [5, 12] was 303 nM and the TGI [5, 12] was 615.8 nM. The GI50 [6, 13] was 455 nM, the TGI [6, 13] was 811.9 nM and the CC50 [7] was 5850 nM. The GI50 [7, 14] was 590 nM, the TGI [7, 14] was 2006.9 nM and the CC50 [8] was greater than 10000 nM. It also gave a GI50 [8, 15] greater than 10000 nM, a TGI [8, 15] greater than 10000 nM and a GI50 [2] of 2370 nM. The GI50 [3] was 2240 nM, the CC50 [9] was 917 nM and the TGI [9, 16] was 604.75 nM. For the same compound, the H3 expression [10] was “upregulated”, the histone deacetylation [10] was “inhibited” and the tubulin acetylation [10] was “upregulated”.
`O=C(C=Cc1ccc2c(ccn2S(=O)(=O)c2ccc(F)cc2)c1)NO` [Compound 5, 3-[1-(4-fluoro-benzenesulfonyl)-1H-indol-5-yl]-N-hydroxy-acrylamide] was tested, and the GI50 [1] was 660 nM, the GI50 ([2]; Homo sapiens) was 1590 nM and the GI50 ([3]; Homo sapiens) was 2300 nM. It also gave a GI50 [4] of 640 nM.
`O=C(C=Cc1ccc2c(ccn2S(=O)(=O)c2ccc([N+](=O)[O-])cc2)c1)NO` [Compound 6, N-hydroxy-3-[1-(4-nitro-benzenesulfonyl)-1H-indol-5-yl]-acrylamide] showed a GI50 [1] of 750 nM, a GI50 ([2]; Homo sapiens) of 2120 nM and a GI50 ([3]; Homo sapiens) of 1980 nM. For the same compound, the GI50 [4] was 560 nM.
In the case of `Nc1ccn([C@@H]2O[C@H](CO)[C@@H](O)[C@@H]2O)c(=O)n1` [Ara-C, reference compound], the GI50 [5, 12] is reported as 448 nM, the TGI [5, 12] is reported as 2324.0 nM and the CC50 ([5]; read-out: LC50, NB4 leukemia cells, MTT, 48 or 72 hr) is reported as 7320 nM. It also gave a GI50 [6, 13] of 445 nM, a TGI [6, 13] of 4344.3 nM and a GI50 [7, 14] of 46.6 nM. For the same compound, the TGI [7, 14] was 109.7 nM, the CC50 ([7]; read-out: LC50, U937 leukemia cells, MTT, 48 or 72 hr) was 665 nM and the GI50 [8, 15] was greater than 10000 nM. It also gave a TGI [8, 15] greater than 10000 nM, a CC50 ([8]; read-out: LC50, K562 leukemia cells, MTT, 48 or 72 hr) greater than 10000 nM and a GI50 [9, 16] greater than 10000 nM. The TGI [9, 16] was greater than 10000 nM and the CC50 ([9]; Kasumi-1 leukemia cells, MTT, 48 or 72 hr, read-out: LC50 (the source's name)) was greater than 10000 nM.
In the case of `O=C(C=Cc1ccc2c(ccn2S(=O)(=O)c2ccccc2)c1)NO` [Compound 3, 3-(1-Benzenesulfonyl-1H-indol-5-yl)-N-hydroxy-acrylamide], the GI50 ([5]; Homo sapiens, NB-4) is reported as 223 nM, the CC50 [5, 17] is reported as 779 nM and the TGI [5, 12] is reported as 500.9 nM. For the same compound, the TGI [6, 13] was 535.8 nM, the GI50 ([6]; Homo sapiens, HL-60) was 242 nM and the GI50 ([7]; Homo sapiens, U-937) was 162 nM. The CC50 [7, 18] was 718 nM, the TGI [7, 14] was 440.0 nM and the GI50 ([8]; Homo sapiens, K562) was 9020 nM. The CC50 [8, 19] was greater than 10000 nM, the TGI [8, 15] was greater than 10000 nM and the GI50 [1] was 480 nM. It also gave a GI50 ([2]; Homo sapiens) of 960 nM, a GI50 ([3]; Homo sapiens) of 1150 nM and a GI50 ([9]; Homo sapiens, Kasumi-1 leukemia cells, MTT, 48 or 72 hr) of 96.6 nM. The CC50 ([9]; Homo sapiens, Kasumi-1 leukemia cells, MTT, 48 or 72 hr, read-out: LC50 (the source's name)) was 694 nM, the TGI [9, 16] was 393.0 nM and the H3 expression [10] was “upregulated”. For the same compound, the histone deacetylation [10] was “inhibited”, the tubulin acetylation [10] was “upregulated” and the GI50 [4] was 410 nM.
Work on `O=C(C=Cc1ccc2c(c1)CCN2S(=O)(=O)c1ccc([N+](=O)[O-])cc1)NO` [Compound 15, N-hydroxy-3-[1-(4-nitro-benzenesulfonyl)-2,3-dihydro-1H-indol-5-yl]-acrylamide] yielded a GI50 [1] of 450 nM, a GI50 ([2]; Homo sapiens) of 800 nM and a GI50 ([3]; Homo sapiens) of 740 nM. It also gave a GI50 [4] of 280 nM.
For `O=C(C=Cc1ccc2c(c1)CCN2S(=O)(=O)c1ccccc1)NO` [Compound 12, 3-(1-benzenesulfonyl-2,3-dihydro-1H-indol-5-yl)-N-hydroxy-acrylamide], the GI50 ([5]; Homo sapiens, NB-4) was 31.5 nM, the CC50 [5, 17] was 91 nM and the TGI [5, 12] was 61.2 nM. For the same compound, the TGI [6, 13] was 65.3 nM, the GI50 ([6]; Homo sapiens, HL-60) was 32.9 nM and the GI50 ([11]; Homo sapiens, MV4-11) was 13.1 nM. The CC50 ([11]; Homo sapiens, MV4-11, read-out: LC50) was 87.2 nM, the TGI ([11]; MV4-11 leukemia cells, MTT, 48 or 72 hr) was 50.2 nM and the GI50 ([7]; Homo sapiens, U-937) was 54.7 nM. For the same compound, the CC50 [7, 18] was greater than 10000 nM, the TGI [7, 14] was 8330.0 nM and the GI50 ([8]; Homo sapiens, K562) was 149 nM. It also gave a CC50 [8, 19] greater than 10000 nM, a TGI [8, 15] of 982.0 nM and a GI50 [1] of 250 nM. The GI50 ([2]; Homo sapiens) was 700 nM, the GI50 ([3]; Homo sapiens) was 620 nM and the H3 expression [10] was “upregulated”. The histone deacetylation [10] was “inhibited”, the tubulin acetylation [10] was “upregulated” and the GI50 [4] was 210 nM.
For `O=C(C=Cc1ccc2c(c1)CCN2S(=O)(=O)c1ccc(F)cc1)NO` [Compound 14, 3-[1-(4-fluoro-benzenesulfonyl)-2,3-dihydro-1H-indol-5-yl]-N-hydroxy-acrylamide], the GI50 [1] was 370 nM, the GI50 ([2]; Homo sapiens) was 600 nM and the GI50 ([3]; Homo sapiens) was 1200 nM. It also gave a GI50 [4] of 250 nM.
For `Nc1ccc(S(=O)(=O)N2CCc3cc(C=CC(=O)NO)ccc32)cc1` [Compound 16, 3-[1-(4-amino-benzenesulfonyl)-2,3-dihydro-1H-indol-5-yl]-N-hydroxy-acrylamide], the GI50 [1] was greater than 10000 nM, the GI50 ([2]; Homo sapiens) was greater than 10000 nM and the GI50 ([3]; Homo sapiens) was greater than 10000 nM. For the same compound, the GI50 [4] was greater than 10000 nM.
